From the NIST ThermoML archive (doi:10.1021/je300852v)
Numbers after ± are expanded uncertainties.

Assay: mean ionic activity coefficient (dimensionless); mn = molality of the nth substance listed, in mol/kg
Details: 298.15 K, 101 kPa, Liquid, 2 term dubye huckel

In the case of `[Ca+2].[Cl-].[Cl-]` [calcium chloride] + O, the “mean ionic activity coefficient” value (m1 = 0.01) is reported as 0.728 ± 0.001, the “mean ionic activity coefficient” value (m1 = 0.02) is reported as 0.664 ± 0.001 and the “mean ionic activity coefficient” value (m1 = 0.05) is reported as 0.576 ± 0.001. For the same compound, the “mean ionic activity coefficient” value (m1 = 0.1) was 0.517 ± 0.001, the “mean ionic activity coefficient” value (m1 = 0.2) was 0.47 ± 0.001 and the “mean ionic activity coefficient” value (m1 = 0.3) was 0.453 ± 0.001. For the same compound, the “mean ionic activity coefficient” value (m1 = 0.4) was 0.448 ± 0.001, the “mean ionic activity coefficient” value (m1 = 0.5) was 0.449 ± 0.001 and the “mean ionic activity coefficient” value (m1 = 0.6) was 0.454 ± 0.001. For the same compound, the “mean ionic activity coefficient” value (m1 = 0.7) was 0.462 ± 0.001, the “mean ionic activity coefficient” value (m1 = 0.8) was 0.473 ± 0.001 and the “mean ionic activity coefficient” value (m1 = 0.9) was 0.487 ± 0.001. The “mean ionic activity coefficient” value (m1 = 1) was 0.502 ± 0.001, the “mean ionic activity coefficient” value (m1 = 1.2) was 0.54 ± 0.001 and the “mean ionic activity coefficient” value (m1 = 1.4) was 0.586 ± 0.001. The “mean ionic activity coefficient” value (m1 = 1.6) was 0.643 ± 0.001, the “mean ionic activity coefficient” value (m1 = 1.8) was 0.71 ± 0.001 and the “mean ionic activity coefficient” value (m1 = 2) was 0.79 ± 0.001. The “mean ionic activity coefficient” value (m1 = 2.5) was 1.064 ± 0.001 and the “mean ionic activity coefficient” value (m1 = 3) was 1.49 ± 0.001.
